Active and inactive are the calls of the source.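 How the source made its calls: active means IC50 half-maximal inhibitory concentration at or below 10 µM; inactive means IC50 above 10 µM.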
Biological target: VIM-2 metallo-beta-lactamase (Pseudomonas aeruginosa) (UniProt Q932Y6)
Assay: VIM-2 CCF2 hydrolysis inhibition, assay artifact filter – biochemical, FRET readout, CCF2 substrate, artefact control for selective VIM-2 inhibitor project, dose response (AID 1926)
Details: purified VIM-2, CCF2 FRET substrate hydrolysis

SMILES: Cc1cc(OCC(=O)N2CCC[C@@H]2C(=O)O)c2c(C)c(C)c(=O)oc2c1
- IC50: 5.31 µM

SMILES: CCCn1c(C(C)C)n[nH]c1=S
- IC50: 3.48 µM

SMILES: CCCCn1c(-c2nn(C)cc2Cl)n[nH]c1=S
- IC50: 1.62 µM

SMILES: COc1cc2c(cc1OC)C(C)N(C(=O)c1nccnc1C(=O)O)CC2 (centres undefined)
- IC50: 5.74 µM

SMILES: O=c1c2ccccc2cnn1Cc1n[nH]c(=S)n1C1CC2CCC1C2 (centres undefined)
- IC50: 9.66 µM

SMILES: Fc1ccccc1-c1n[nH]c(=S)n1Cc1ccccc1
- IC50: 4.14 µM

SMILES: COCC(=O)Nc1nnc(SCC(=O)NCc2cccs2)s1
- IC50: 3.62 µM

SMILES: S=c1[nH]nc(-c2ccco2)n1Cc1ccccc1
- IC50: 3.51 µM

SMILES: O=C(O)c1c(C(=O)O)c(-c2ccc(Br)cc2)n2c1CSC2
- IC50: 1.51 µM

SMILES: CCCc1cc(=O)oc2c3c(cc(OCC(=O)N[C@@H](C)C(=O)O)c12)OC(C)(C)CC3
- IC50: 6.97 µM

SMILES: Cc1ccc(-c2n[nH]c(=S)n2-c2ccccc2)cc1
- IC50: inactive

SMILES: Cc1cc(=O)oc2c3c(cc(OCC(=O)N4CCC[C@H]4C(=O)O)c12)OC(C)(C)CC3
- IC50: 4.93 µM

SMILES: S=c1[nH]nc(-c2cccs2)n1Cc1ccccc1
- IC50: 0.889 µM

SMILES: O=C(CSc1nnc(NC(=O)c2c(F)cccc2F)s1)NCc1ccccc1
- IC50: 3.62 µM

SMILES: Cc1ccccc1C(=O)Nc1nnc(SCC(=O)NCc2ccco2)s1
- IC50: 1.12 µM

SMILES: O=c1[nH]c2c(s1)C(c1cccnc1)C1C3CCC(C3)C1S2 (centres undefined)
- IC50: 0.0339 µM

SMILES: CCCCn1c(-c2ccoc2C)n[nH]c1=S
- IC50: 4.25 µM

SMILES: O=C(O)c1ccccc1C(=O)c1cccc2ccccc12
- IC50: 3.82 µM

SMILES: COc1ccc(-c2cc(C(F)(F)F)nc(N3CCN(C)CC3)n2)cc1
- IC50: > 59.6 µM (inactive)

SMILES: O=C(CSc1nnc(NC(=O)c2ccccc2F)s1)NCc1ccc(F)cc1
- IC50: 3.65 µM

SMILES: CC(C)(C)CC(=O)Nc1nnc(SCC(=O)NCc2cccs2)s1
- IC50: 6.64 µM

SMILES: O=C(O)Cn1cccc1C(=O)c1ccccc1
- IC50: 4.04 µM

SMILES: Cc1n[nH]c(C)c1CCCCOc1ccc([N+](=O)[O-])cc1
- IC50: 5.26 µM

SMILES: Cc1cc(OCc2cc(C(=O)O)oc2C)c2c3c(c(=O)oc2c1)CCCC3
- IC50: 0.582 µM

SMILES: CCOC(=O)c1[nH]c(C(=O)O)c(CCC(=O)OC)c1C
- IC50: 5 µM

SMILES: CC1=C(C(=O)O)N2C(=O)C(NC(=O)c3nn(C)cc3[N+](=O)[O-])C2SC1 (centres undefined)
- IC50: 8.54 µM

SMILES: S=c1[nH]nc(Cn2c(-c3ccccn3)nc3ccccc32)n1-c1ccc2c(c1)OCCO2
- IC50: 4.03 µM

SMILES: Cc1c(C)c2ccc(OCC(=O)N3CCC[C@@H]3C(=O)O)c(C)c2oc1=O
- IC50: 2.09 µM

SMILES: CCCCc1cc(=O)oc2c3c(cc(OCC(=O)N4CCC[C@H]4C(=O)O)c12)OC(C)(C)CC3
- IC50: 8.93 µM

SMILES: CC1CCCCC1n1c(-c2cccnc2)n[nH]c1=S (centres undefined)
- IC50: 4.05 µM

SMILES: Cc1cccc(C(=O)Nc2nnc(SCC(=O)NCc3ccco3)s2)c1
- IC50: inactive

SMILES: O=C(CCN1C(=O)/C(=C/c2ccccc2F)SC1=S)NCCCn1ccnc1
- IC50: 4.49 µM

SMILES: O=P(O)(O)c1ccccc1OCCCCCOc1ccccc1P(=O)(O)O
- IC50: 0.862 µM

SMILES: CCCC(=O)Nc1nnc(SCC(=O)NCc2cccs2)s1
- IC50: 4.68 µM

SMILES: Cc1c(C)c2c(OCC(=O)N[C@@H](C)C(=O)O)cc3c(c2oc1=O)CCC(C)(C)O3
- IC50: 1.54 µM

SMILES: S=c1[nH]nc(-c2ccco2)n1-c1cccc2ccccc12
- IC50: 3.97 µM

SMILES: COc1cccc(-n2c(CNC(=O)OC(C)(C)C)n[nH]c2=S)c1
- IC50: 7.83 µM

SMILES: Cc1cc(C(=O)OCC(=O)NC(=O)c2cccn2C)c2ccccc2n1
- IC50: 2.3 µM

SMILES: Cc1cccc(-n2c(C)n[nH]c2=S)c1C
- IC50: 8.27 µM

SMILES: O=C(O)C1Sc2[nH]c(=O)sc2C2c3cc(Cl)ccc3OC(=O)C12 (centres undefined)
- IC50: > 59.6 µM (inactive)

SMILES: O=C(CSc1nnc(NC(=O)c2ccccc2[N+](=O)[O-])s1)NCc1ccco1
- IC50: 2.62 µM

SMILES: O=C(CSc1nnc(NC(=O)C2CC2)s1)NCc1ccccc1Cl
- IC50: 4.62 µM

SMILES: COc1ccccc1C(=O)Nc1nnc(SCC(=O)NCc2ccco2)s1
- IC50: 2.61 µM

SMILES: CCCCn1c(-c2sccc2C)n[nH]c1=S
- IC50: 0.961 µM

SMILES: CCn1c(-c2nn(-c3ccccc3)ccc2=O)n[nH]c1=S
- IC50: 8.57 µM

SMILES: S=c1[nH]nc(-c2ccc3ccccc3n2)n1-c1ccc2c(c1)OCCO2
- IC50: 7.92 µM

SMILES: O=Cc1c(NCc2ccc(Cl)cc2)c2ccccc2[nH]c1=O
- IC50: 9.8 µM

SMILES: NC(=O)SCC(=O)Nc1ccccc1C(=O)O
- IC50: 5.27 µM

SMILES: S=c1[nH]nc(-c2ccccc2)n1CC1CCCO1 (centres undefined)
- IC50: 4.15 µM

SMILES: Cc1ccc(S(=O)(=O)n2[nH]c(=O)cc2NC(=O)c2cccs2)cc1
- IC50: 0.12 µM

SMILES: Cc1c(OCC(=O)N2CCC[C@@H]2C(=O)O)ccc2c3c(c(=O)oc12)CCC3
- IC50: 5.43 µM

SMILES: COc1ccc(-c2n[nH]c(=S)n2-c2ccc3c(c2)OCCO3)cc1OC
- IC50: 2.62 µM

SMILES: Cc1nn(CCc2n[nH]c(=S)n2-c2cccc(Cl)c2)c(C)c1[N+](=O)[O-]
- IC50: 4.31 µM

SMILES: CSc1nc(SCC(=O)O)c2c3c(sc2n1)COC(C)(C)C3
- IC50: 5.35 µM

SMILES: Cn1c(-c2sccc2OCc2ccccc2)n[nH]c1=S
- IC50: 1.2 µM

SMILES: CC(=O)c1ccc(-c2ccc(Cn3c(C)nc4cc(N)c(C)nc43)cc2)cc1
- IC50: 6.28 µM

SMILES: CCCCn1c(-c2nn(C)c(C)c2Cl)n[nH]c1=S
- IC50: 1.99 µM

SMILES: O=P(O)(O)c1ccccc1OCc1ccccc1
- IC50: 0.689 µM

SMILES: O=C(O)c1ccccc1Sc1ncnc2sc3c(c12)CCC3
- IC50: 3.91 µM

SMILES: O=C(CSc1nnc(NC(=O)C2CCCCC2)s1)NCc1ccco1
- IC50: 2.23 µM

SMILES: O=C(O)c1[nH]c2ccc(Br)cc2c1CCN1C(=O)c2cccc([N+](=O)[O-])c2C1=O
- IC50: 0.716 µM

SMILES: Cc1c(Cl)c(-c2n[nH]c(=S)n2-c2ccc(F)cc2)nn1C
- IC50: 6.25 µM

SMILES: S=c1[nH]nc(-c2ccccc2)n1C1C=CCCC1 (centres undefined)
- IC50: 4.99 µM

SMILES: O=C(CSc1nnc(NC(=O)c2cccc(F)c2)s1)NCc1ccco1
- IC50: 4.55 µM

SMILES: Cc1cccc(C2c3[nH]c4ccccc4c3CCN2C(=O)c2cc(CC(C)C)[nH]c(=O)n2)n1 (centres undefined)
- IC50: 2.74 µM

SMILES: C=CCn1c(C2CC2)n[nH]c1=S
- IC50: 8.36 µM

SMILES: C=C(C)Cn1c(-c2cccs2)n[nH]c1=S
- IC50: 1.39 µM

SMILES: O=C(O)CC/C(=C\c1cc([N+](=O)[O-])ccc1Cl)c1nc2ccccc2s1
- IC50: 4.17 µM

SMILES: O=C(CSc1nnc(NC(=O)c2cc(Br)ccc2Cl)s1)NCC1CCCO1 (centres undefined)
- IC50: 5.87 µM

SMILES: COc1ccc2[nH]c(C(=O)O)c(CCN3C(=O)c4ccc(C(=O)O)cc4C3=O)c2c1
- IC50: 0.433 µM

SMILES: CSC[C@H](NC(=O)COc1cc2c(c3oc(=O)c(C)c(C)c13)CCC(C)(C)O2)C(=O)O
- IC50: 4.21 µM

SMILES: CC(C)(C)C(=O)Nc1nnc(SCC(=O)NCc2cccs2)s1
- IC50: 0.874 µM

SMILES: COc1ccccc1-n1c(-c2ccco2)n[nH]c1=S
- IC50: 5.21 µM

SMILES: Cc1c(C)c2c(OCC(=O)N3CCC[C@H]3C(=O)O)cc3c(c2oc1=O)CCC(C)(C)O3
- IC50: 0.525 µM

SMILES: S=c1[nH]nc(-c2cccs2)n1C1CCCCC1
- IC50: 1.31 µM

SMILES: Cc1ccc(-n2c(-c3nn(C)c(C)c3Cl)n[nH]c2=S)cc1
- IC50: 3.72 µM

SMILES: COc1ccccc1-c1n[nH]c(=S)n1Cc1ccco1
- IC50: 6.53 µM

SMILES: CC(C)(C)c1ccc(COc2ccsc2C(=O)O)cc1
- IC50: 5.71 µM

SMILES: Cn1c(-c2sccc2OCc2ccc(Cl)cc2Cl)n[nH]c1=S
- IC50: 0.774 µM

SMILES: CCCc1cc(=O)oc2c3c(cc(OCC(=O)N4CCC[C@H]4C(=O)O)c12)OC(C)(C)CC3
- IC50: 1.73 µM

SMILES: CCc1cc(=O)oc2c(C)c(OCC(=O)N3CCC[C@@H]3C(=O)O)ccc12
- IC50: 8.96 µM

SMILES: Cc1cc(=O)oc2c3c(cc(OCC(=O)N[C@@H](Cc4ccccc4)C(=O)O)c12)OC(C)(C)CC3
- IC50: 7.51 µM

SMILES: CCN(CC)C(=O)CSc1nc2ccc(NC(=O)CSc3nccn3C)cc2s1
- IC50: 3.61 µM

SMILES: O=[N+]([O-])c1ccc(-c2ccccc2)c([As](=O)(O)O)c1
- IC50: 0.245 µM

SMILES: COCC(C)NC(=O)c1cc2cccc([N+](=O)[O-])c2[nH]1 (centres undefined)
- IC50: 6.15 µM

SMILES: S=c1[nH]nc(-c2ccccc2)n1Cc1ccccc1
- IC50: 8.3 µM

SMILES: CC(C)(C)C(=O)Nc1nnc(CSCc2ccccc2F)s1
- IC50: 1.96 µM

SMILES: O=C(CSc1nnc(NC(=O)c2ccccc2)s1)NCc1ccco1
- IC50: 4.63 µM

SMILES: O=c1[nH]c(SCc2n[nH]c(=S)n2-c2ccccc2)nc2sc3c(c12)CCC3
- IC50: 4.2 µM

SMILES: O=C(c1ccco1)N1N=C(c2ccc(Cl)cc2)CC1c1ccco1 (centres undefined)
- IC50: 1.61 µM

SMILES: S=c1[nH]nc(C2CC2)n1Cc1ccco1
- IC50: 3.76 µM

SMILES: Cc1ccc(-c2c(C(=O)O)c(C(=O)O)c3n2CSC3)cc1
- IC50: 2.95 µM

SMILES: Cc1cc(C)n(-c2nc(SCC(=O)O)c3c4c(sc3n2)COC(C)(C)C4)n1
- IC50: 9.07 µM

SMILES: CC(C)Cn1c(-c2ccco2)n[nH]c1=S
- IC50: 4.37 µM

SMILES: Cn1ccnc1SCC(=O)Nc1ccc2nc(SCC(=O)NC3CC3)sc2c1
- IC50: 9 µM

SMILES: CC1CCCC(C)N1C(=O)CSc1nnc(NC(=O)c2cccs2)s1 (centres undefined)
- IC50: 3.92 µM

SMILES: C=C(c1cccc2ccccc12)P(=O)(O)O
- IC50: 2.17 µM

SMILES: O=C(O)c1[nH]c2ccc(Cl)cc2c1CCN1C(=O)c2ccccc2C1=O
- IC50: 0.374 µM

SMILES: CC(C)(C)c1ccc(-c2n[nH]c(=S)n2CCCN2CCOCC2)cc1
- IC50: 6.73 µM

SMILES: CCOC(=O)N=S(N)(=O)c1ccccc1 (centres undefined)
- IC50: 4.85 µM

SMILES: O=C1Nc2cc(C(=O)NCCCN3CCOCC3)ccc2S/C1=C/c1ccccc1F
- IC50: inactive

SMILES: S=c1[nH]nc(C2CC2)n1Cc1ccccc1
- IC50: 0.94 µM

SMILES: O=C(O)C(NC(=O)c1ccccc1)=C(Cl)Cl
- IC50: 7.85 µM

SMILES: O=C1Nc2cc(C(=O)N3CCC(N4CCCCC4)CC3)ccc2S/C1=C\c1ccccc1
- IC50: 4.51 µM

Source: PubChem BioAssay AID1926 (The Scripps Research Institute Molecular Screening Center, 2009)
